Among the data in ChEMBL document CHEMBL1126203, “Synthesis and structure-activity relationships of a series of novel benzopyran-containing platelet activating factor antagonists” (J Med Chem, 1992) are ED50 values, retold here.

The ED50 is the dose that gives a 50% effect, or the effect in half of the subjects. Read a low ED50 as an effect at a small dose.

The test system of this assay is Rattus norvegicus. Kind of assay: Compounds were evaluated by intravenous administration along with 100 ug/kg of PAF in rat. Type of assay: functional.

The molecule `CCOC(=O)COc1cc(C(C)CCCc2ccc(F)cc2)cc2c1C1=C(CCN(CC(=O)NC)C1)C(C)(C)O2` (stereo unspecified) registered an ED50 of 0.6 mg/kg.
